Literature values, collected in patent US9399657B2, “Chemiluminescent methods and reagents for analyte detection” (priority 2007, dated 2016).
pIC50: −log10 of the molar value.

Biological target: firefly luciferase (Photinus pyralis, UniProt P08659)
Settings: read-out: IC50 (inhibitor of firefly luciferase bioluminescence reaction)

firefly luciferase, sequence (P08659 whole entry): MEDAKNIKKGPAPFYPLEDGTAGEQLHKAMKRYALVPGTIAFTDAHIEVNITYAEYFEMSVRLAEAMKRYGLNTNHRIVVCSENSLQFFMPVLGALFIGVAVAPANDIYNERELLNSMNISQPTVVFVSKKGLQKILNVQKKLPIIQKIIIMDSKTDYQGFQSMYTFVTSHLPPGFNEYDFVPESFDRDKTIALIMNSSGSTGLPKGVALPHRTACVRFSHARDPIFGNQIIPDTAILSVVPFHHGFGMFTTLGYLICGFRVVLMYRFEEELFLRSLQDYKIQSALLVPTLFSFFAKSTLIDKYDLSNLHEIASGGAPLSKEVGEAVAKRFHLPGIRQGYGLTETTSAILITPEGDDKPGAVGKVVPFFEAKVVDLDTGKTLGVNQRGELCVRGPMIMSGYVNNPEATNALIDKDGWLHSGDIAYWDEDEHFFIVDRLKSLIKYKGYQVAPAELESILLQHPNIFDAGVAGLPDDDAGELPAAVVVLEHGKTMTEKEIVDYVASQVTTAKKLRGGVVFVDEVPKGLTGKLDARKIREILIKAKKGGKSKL

O=C(O)c1csc(-c2nc3ccc(O)cc3s2)n1 [firefly dehydroluciferin]
pIC50: 8.22
